Experimental data as given in patent EP4772530A1, “PEPTIDE TARGETING SOMATOSTATIN RECEPTOR, DRUG CONJUGATE AND USE THEREOF” (Mainline Biosciences (Shanghai) Co., Ltd., priority 2023, dated 2025).
Where “and” joins values, the source holds several entries; their conditions need not be identical. Equal values may be shown once. Entries after “also recorded” stand apart in the source; their conditions may differ.

Assays:
[1] = tested on: Human multiple myeloma MM.1S cells; test: EX3.3 in vivo pharmacodynamics, MM.1S subcutaneous xenograft model; set-up: species or system CB17 SCID mice; details: for Tumor Volume (Mean ± SEM): IV, Twice Weekly
Protocol: Human multiple myeloma MM.1S cells were suspended and cultured in vitro in 1640 medium containing 10% fetal bovine serum, 100 U/mL penicillin, and 100 µg/mL streptomycin in a 5% CO2 incubator at 37°C. The suspended cells were collected by centrifugation twice a week and adherent cells were digested with trypsin-EDTA to prepare a cell suspension for subculture. When the cell saturation was 80%-90% and the cell number reached the requirement, the cells were collected, counted, and inoculated.
CB17 SCID mice, female, 6-8 weeks old, weighing 18-22 g, provided by Zhejiang Vital River Laboratory Animal Technology Co., Ltd.
Each mouse was subcutaneously injected with 100 µL of PBS containing 5×10^6 MM.1S cells + 100 µL of Matrigel (final volume: 200 µL) at the axilla of the right forelimb. At 20 days after injection, when the average tumor volume reached 109 mm^3, mice were grouped for dosing (vehicle control,Ixazomib Citrate, and Example 1 treatment groups, with 6 animals per group). The Ixazomib Citrate group was orally administered by gavage (4 mg/kg) twice a week; the vehicle control group (5%DMSO + 95% normal saline) and the Example 1 treatment group (1.75 mg/kg) were slowly intravenously injected for about 30 seconds each time, twice a week.
The experimental indicators were used to investigate whether tumor growth was inhibited, delayed, or cured. The tumor diameter was measured twice a week using a vernier caliper. The tumor volume was calculated as follows: V = 0.5a×b^2, where a and b were the long and short diameters of the tumor, respectively.
The anti-tumor efficacy of the drug was evaluated based on TGI (%) or relative tumor proliferation rate T/C (%). TGI (%) was the tumor growth inhibition rate. TGI (%) was calculated as follows: TGI (%)=[(1 -(mean tumor volume at the end of dosing in a certain treatment group - mean tumor volume at the start of dosing in the treatment group))/ (mean tumor volume at the end of dosing in the vehicle control group - mean tumor volume at the start of dosing in the vehicle control group)]× 100%.
T/C (%) was calculated as follows:T/C (%)= TRTV/ CRTV× 100 %. Based on the results of tumor measurement, the relative tumor volume (RTV) was calculated as follows: RTV = Vt/V0, where V0 was the mean tumor volume measured at the time of grouping (i.e. d0), and Vt was the mean tumor volume at a certain measurement. Data on the same day were taken for TRTV and CRTV.
Tumor weights were measured at the end of the experiment and T/Cweight was calculated, where Tweight and Cweight were tumor weights in the treatment and vehicle control groups, respectively.
Statistical analysis, including the mean and standard error (SEM) of tumor volume at each time point in each group (see Table 5-1 in Section 5.2 for specific data), was performed to evaluate differences between groups based on data from the treatment group on Day 18 post-dose at the end of the experiment. A t-test was used for comparison between two groups, and one-way ANOVA was used for comparison among three or more groups. If there was a significant difference in F value, the Games-Howell method was used for testing; if there was no significant difference in F value, the Dunnet (2-sided) method was used for analysis. All data were analyzed using SPSS 17.0.

[2] = molecular target: T1, SSTR2 (Homo sapiens, UniProt P30874); test: SSTR2 cAMP test; format: cell-based; details: Max Dose 50000 nM
T1 construct: expressed in transfected cells; host or cells: CHO cells (SSTR2/CHO)
Protocol: • 1) Compound preparation: The test compound was diluted by 4-fold with DMSO to obtain 10 different concentration points. Approximately 100 nL of the diluted compound was then transferred to a cell reaction plate and centrifuged for later use. • 2) Cell preparation:The cultured SSTR2/CHO cells were collected into a sterile centrifuge tube, and the supernatant was discarded by centrifugation. • 3) The cells were resuspended in assay buffer, counted using a Vi-cell counter, and diluted with assay buffer. • 4) Approximately 100 nL of 100 µM Forskolin was transferred into the cell reaction plate using an Echo and centrifuged. Then, 10 µL of assay buffer containing the cells was added and incubated. • 5) Approximately 10 µL of cAMP detection reagent solution was added to the corresponding wells of the cell reaction plate, and incubated at room temperature in the dark. • 6) The plate was read using a microplate reader. The final value was determined as the ratio of OD at 665 nm to that at 615 nm. • 7) The cAMP value was calculated for each well: Activity (%)=(signal value of sample well - mean signal value of low-signal control wells)/ (mean signal value of high-signal control wells - mean signal value of low-signal control wells). Fitting was performed using the "Nonlinear regression (curve fit)-log(agonist) vs. response -- Variable slope" model in GraphPad Prism 5.0, with the log-transformed compound concentration on the x-axis and cAMP activation rate on the y-axis. The EC50 value of the sample was calculated accordingly. Table 2: SSTR2 cAMP Test Results

[3] = tested on: NCI-H69; test: Cell killing in NCI-H69 by CGT (CellTiter-Glo); format: cell-based; details: NCI-H69, 96 h; Inh% relative to DMSO control, 4-parameter fit
Protocol: Approximately 5 µL of the PDC was added to the corresponding wells of the plate, and compared with DMSO (control, without the PDC of the present application), PTX, MMAE, and Dxd wells. The final concentration of DMSO in each well was 0.2%; • (5) The cells were incubated in a 5% CO2 incubator at 37°C for 96 h; • (6) The cell culture plate was equilibrated to room temperature, and 50 µL of CellTiter-Glo® Reagent was added to each well; • (7) The plate was placed on a shaker for 2 min to ensure complete cell lysis; • (8) After mixing, the plate was placed at room temperature to react for 10 min. The fluorescence value (in RLU) was read when the signal became stable. • c) Data analysis • (1) The inhibition (Inh %) relative to the DMSO control was calculated as follows: Inhibition (Inh%)= 100 -(RLU of compound - RLU of DMSO control)/ (RLU of DMSO control - RLU of blank)*100% • (2) The data were analyzed using Graphpad 5.0 software. A 4-parameter equation was fitted to generate a concentration-response curve to obtain the IC50. Table 3: Test Results of Cell Killing in NCI-H69

[4] = 18 days after the start of dosing, Example 1 1.75 mg/kg IV twice a week

T1 sequence (P30874 whole entry): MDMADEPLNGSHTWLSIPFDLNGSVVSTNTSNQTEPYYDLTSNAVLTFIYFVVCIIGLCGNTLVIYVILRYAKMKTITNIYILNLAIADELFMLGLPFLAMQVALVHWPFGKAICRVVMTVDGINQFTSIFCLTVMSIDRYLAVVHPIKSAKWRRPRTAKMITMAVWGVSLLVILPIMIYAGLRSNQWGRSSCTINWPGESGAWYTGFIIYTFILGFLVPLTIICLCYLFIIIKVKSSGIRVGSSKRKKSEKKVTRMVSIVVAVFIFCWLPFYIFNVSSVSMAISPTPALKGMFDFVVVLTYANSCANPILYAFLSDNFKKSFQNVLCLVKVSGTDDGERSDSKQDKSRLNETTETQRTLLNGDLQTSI

## CC[C@H](C)[C@@H]([C@@H](CC(=O)N1CCC[C@H]1[C@H](OC)[C@@H](C)C(=O)N[C@H](C)[C@@H](O)c1ccccc1)OC)N(C)C(=O)[C@@H](NC(=O)[C@H](C(C)C)N(C)C(=O)OCc1ccc(NC(=O)[C@H](CCCNC(N)=O)NC(=O)[C@@H](NC(=O)CCCCCN2C(=O)CC(SC[C@H](NC(C)=O)C(=O)NCCOCCOCC(=O)N[C@@H](CCCNC(=N)N)C(=O)N[C@@H](CCCNC(=N)N)C(=O)N[C@@H](CC(C)C)C(=O)N[C@@H](Cc3ccccc3)C(=O)N[C@H]3CSSC[C@@H](C(=O)N[C@H](C(=O)N[C@@H](Cc4c[nH]c5ccccc45)C(=O)N[C@@H](CCCNC(=N)N)C(=O)N[C@@H](CC(=O)O)C(N)=O)[C@@H](C)O)NC(=O)[C@H]([C@@H](C)O)NC(=O)[C@H](CCCCN)NC(=O)[C@@H](Cc4c[nH]c5ccccc45)NC(=O)[C@H](Cc4ccc(O)cc4)NC3=O)C2=O)C(C)C)cc1)C(C)C (stereo partly drawn) [Example 1, Cys(MC-Val-Cit-PABC-MMAE)-AEEA-Arg-Arg-Leu-Phe-[Cys-Tyr-D-Trp-Lys-Thr-Cys]-Thr-Trp-Arg-Asp-NH2]
[1]; [4]
  T/C: 0.94%
  TGI: 103.59%
[1]; 18 days after the start of dosing, Example 1 1.75 mg/kg, p= 0.010, 1.75 mg/kg
  tumor inhibition compared to the vehicle control group: significant tumor inhibition; also recorded: significant anti-tumor effect
[1]; Day 4, Example 1 1.75 mg/kg
  Tumor Volume (Mean ± SEM): 144 ± 14 mm3
[1]; Day 7, Example 1 1.75 mg/kg
  Tumor Volume (Mean ± SEM): 124 ± 13 mm3
[1]; Day 11, Example 1 1.75 mg/kg
  Tumor Volume (Mean ± SEM): 87 ± 11 mm3
[1]; Day 14, Example 1 1.75 mg/kg
  Tumor Volume (Mean ± SEM): 50 ± 8 mm3
[1]; Day 18, Example 1 1.75 mg/kg, 1.75 mg/kg
  Tumor Volume (Mean ± SEM): 23 mm3 and 23 ± 5 mm3
[1]; Day 21, Example 1 1.75 mg/kg
  Tumor Volume (Mean ± SEM): 12 ± 5 mm3
[1]; Day 25, Example 1 1.75 mg/kg
  Tumor Volume (Mean ± SEM): 0 ± 0 mm3
[1]; Day 28, Example 1 1.75 mg/kg
  Tumor Volume (Mean ± SEM): 0 ± 0 mm3
[1]; Example 1 1.75 mg/kg
  complete response rate: 100%
[1]; Example 1 1.75 mg/kg, 6 animals in the group
  complete response: all achieved a complete response
[2]
  activity at 50 µM: 93.9%
[3]
  Bottom (Inhibition at Lowest Point): 2.17
  Top (Inhibition at Highest Point): 79.37
